Assay results published in patent US4413009A, “N-((Alkylamino)carbonyl)-N-(((alkylamino)carbonyl)oxy)acylamides with antineoplastic activity” (priority 1982, dated 1983).

System: HeLa cells
Assay: HeLa cell colony cytotoxicity / growth inhibition test
Type: cell-based, human
Details: 8 days, 0-50 μg/ml
Procedure: HeLa cells were seeded in 24-well tissue culture plates at a concentration of 30 cells per well in 1 ml of growth medium (Eagle's minimum essential medium with 5 percent HIFCS). The plates were incubated at 36° C. for 24 hours after which the growth medium was removed. The cells were resuspended in 1 ml of fresh growth medium described above together with a measured quantity of (0-50 μg/ml) of one of the compounds of this invention. The 0 μg/ml concentration served as a control. The tissue culture plates were then incubated at 36° C. for 8 days at which time the medium was removed and the cells were fixed and stained with 0.1% crystal violet in 20% ethanol. The HeLa cell colonies were counted macroscopically, and comparisons of colony size in treated and control wells were made. Test compounds were considered cytotoxic at concentrations which reduced the number of HeLa cell colonies compared to control by 50% or more. Test compounds of the invention were considered to cause HeLa cell growth inhibition at concentrations which reduced the size of colonies by a measurable amount when compared to control.

| SMILES | Cell Growth Inhibition: concentration at which the size of the HeLa colonies were reduced by a measurable amount (as compared to control) [µg/mL] |
| --- | --- |
| CCCNC(=O)ON(C(C)=O)C(=O)NCCC [Example 9, N-((Propylamino)carbonyl)-N-(((propylamino)carbonyl)oxy)acetamide] | 6.3 |
| CC(=O)N(OC(=O)NC1CCCCC1)C(=O)NC1CCCCC1 [Example 7, N-((Cyclohexylamino)carbonyl)-N-(((cyclohexylamino)carbonyl)oxy)acetamide] | 1.6 |
| CCCCNC(=O)ON(C(=O)NCCCC)C(=O)C1CC1 [Example 26, N-((Butylamino)carbonyl)-N-(((butylamino)carbonyl)oxy)cyclopropanecarboxamide] | 12.5 |
| CC(=O)N(OC(=O)Nc1ccccc1)C(=O)Nc1ccccc1 [Example 10, N-((Phenylamino)carbonyl)-N-(((phenylamino)carbonyl)oxy)acetamide] | 50 |
| CNC(=O)ON(C(=O)NC)S(C)(=O)=O [Example 30, N-((Methylamino)carbonyl)-N-(((methyl-amino)carbonyl)oxy)methanesulfamide] | 3.1 |
| CC(=O)N(OC(=O)Nc1ccc(C)cc1)C(=O)Nc1ccc(C)cc1 [Example 12, N-(((4-Methylphenyl)amino)carbonyl)-N-((((4-methylphenyl)amino)carbonyl)oxy)acetamide] | 12.5 |
| CCNC(=O)ON(C(=O)NCC)C(=O)C1CC1 [Example 24, N-((Ethylamino)carbonyl)-N-(((ethylamino)carbonyl)oxy)cyclopropanecarboxamide] | 3.1 |
| CCNC(=O)ON(C(=O)NCC)C(=O)c1ccccc1 [Example 16, N-((Ethylamino)carbonyl)-N-(((ethylamino)-carbonyl)oxy)benzamide] | 12.5 |
| CNC(=O)ON(C(=O)NC)C(=O)C(C)(C)C [Example 6, N-((Methylamino)carbonyl)-N-(((methylamino)-carbonyl)oxy)(2,2-dimethyl)propionamide] | 12.5 |
| CC(=O)N(OC(=O)NC(C)C)C(=O)NC(C)C [Example 8, N-(((1-Methylethyl)amino)carbonyl)-N-((((1-methylethyl)amino)carbonyl)oxy)acetamide] | 1.6 |
| O=C(Nc1ccccc1)ON(C(=O)Nc1ccccc1)C(=O)c1ccccc1 [Example 20, N-((Phenylamino)carbonyl)-N-(((phenyl-amino)carbonyl)oxy)benzamide] | 50 |
| CCCCNC(=O)ON(C(=O)NCCCC)C(=O)c1ccccc1 [Example 18, N-((Butylamino)carbonyl)-N-(((butylamino)-carbonyl)oxy)benzamide] | 0.8 |
| CC(C)NC(=O)ON(C(=O)NC(C)C)C(=O)c1ccccc1 [Example 14, N-(((1-Methylethyl)amino)carbonyl)-N-((((1-methylethyl)amino)carbonyl)oxy)benzamide] | 0.8 |
| CNC(=O)ON(C(=O)NC)C(=O)c1ccccc1 [Example 15, N-((Methylamino)carbonyl)-N-(((methylamino)-carbonyl)oxy)benzamide] | 3.1 |
| CCCCNC(=O)ON(C(C)=O)C(=O)NCCCC [Example 13, N-((Butylamino)carbonyl)-N-(((butylamino)carbonyl)oxy)acetamide] | 3.1 |
| CNC(=O)ON(C(=O)NC)C(=O)C1CC1 [Example 23, N-((Methylamino)carbonyl)-N-(((methylamino)carbonyl)oxy)cyclopropanecarboxamide] | 12.5 |
| CC(C)(C)NC(=O)ON(C(=O)NC(C)(C)C)C(=O)c1ccccc1 [Example 19, N-(((1,1-Dimethylethyl)amino)carbonyl)-N-((((1,1-dimethylethyl)amino)carbonyl)oxy)benzamide] | 50 |
| CCNC(=O)ON(C(=O)CC)C(=O)NCC [Example 5, N-((ethylamino)carbonyl)-N-(((ethylamino)-carbonyl)oxy)propionamide] | 50 |
| CC(=O)N(OC(=O)NC(C)(C)C)C(=O)NC(C)(C)C [Example 3, N-(((1,1-dimethylethyl)amino)carbonyl)-N-((((1,1-dimethylethyl)amino)carbonyl)oxy)acetamide] | 12.5 |
| O=C(Nc1ccccc1)ON(C(=O)Nc1ccccc1)C(=O)C1CC1 [Example 28, N-((Phenylamino)carbonyl)-N-(((phenylamino)carbonyl)oxy)cyclopropanecarboxamide] | 50 |
| CCNC(=O)ON(C(=O)NCC)S(C)(=O)=O [Example 31, N-((Ethylamino)carbonyl)-N-(((ethylamino)-carbonyl)oxy)-methanesulfamide] | 3.1 |
| CC(=O)N(OC(=O)Nc1cccc(C)c1)C(=O)Nc1cccc(C)c1 [Example 11, N-(((3-methylphenyl)amino)carbonyl)-N-((((3-methylphenyl)amino)carbonyl)oxy)acetamide] | 50 |
| CCC(=O)N(OC(=O)NC)C(=O)NC [Example 4, N-((methylamino)carbonyl)-N-(((methyl-amino)carbonyl)oxy)propionamide] | 12.5 |
| CC(C)NC(=O)ON(C(=O)NC(C)C)C(=O)C1CC1 [Example 25, N-(((1-Methylethyl)amino)carbonyl)-N-((((1-methylethyl)amino)carbonyl)oxy)cyclopropanecarboxamide] | 3.1 |
| CC(C)(C)NC(=O)ON(C(=O)NC(C)(C)C)C(=O)C1CC1 [Example 27, N-(((1,1-Dimethylethyl)amino)carbonyl)-N-((((1,1-dimethylethyl)amino)carbonyl)oxy)cyclopropanecarboxamide] | 50 |
| CCCNC(=O)ON(C(=O)NCCC)C(=O)C1CC1 [Example 22, N-((Propylamino)carbonyl)-N-(((propyl-amino)carbonyl)oxy)cyclopropanecarboxamide] | 3.1 |
